Experimental data reported in patent US6423725B1 (dated 2002).
Counter-ions that a name gives are not always drawn.

melting point	SMILES
196 °C	O=c1[nH]c2ccccc2n1C1CCN(C2(c3ccccc3)CCCCCCC2)CC1 (as salt: hydrochloride)
187 °C	O=c1[nH]c2ccccc2n1C1CCN(C2(c3ccccc3)CCCCCCCC2)CC1 (as salt: hydrochloride)
217 °C	O=c1[nH]c2ccccc2n1C1CCN(C2(c3ccccc3)CCCCCCCCC2)CC1 (as salt: hydrochloride)
196 to 202 °C	O=c1[nH]c2ccccc2n1C1CCN(C2(c3ccccc3)CCCCCCCCCC2)CC1 (as salt: hydrochloride)
251 °C	O=c1[nH]c2ccccc2n1C1CCN(C2(c3ccccc3)CCCCCCCCCCC2)CC1 (as salt: hydrochloride)
185 to 192 °C	O=c1[nH]c2ccccc2n1C1CCN(C2(c3ccc(F)cc3)CCCCCC2)CC1 (as salt: hydrochloride)
196 to 199 °C	O=c1[nH]c2ccccc2n1C1CCN(C2(c3cccc(F)c3)CCCCCC2)CC1 (as salt: hydrochloride)

Second part, the molecule before the results:

SMILES	melting point
CC1(C)CCC(c2ccccc2)(N2CCC(n3c(=O)[nH]c4ccccc43)CC2)CC1 (as salt: hydrochloride)	256 °C
COc1cccc(C2(N3CCC(n4c(=O)[nH]c5ccccc54)CC3)CCCCCC2)c1 (as salt: hydrochloride)	216 to 218 °C
COc1ccccc1C1(N2CCC(n3c(=O)[nH]c4ccccc43)CC2)CCCCCC1 (as salt: hydrochloride)	167 to 173 °C
CC(C)(C)C1CCC(c2ccccc2)(N2CCC(n3c(=O)[nH]c4ccccc43)CC2)CC1 (stereo not drawn) (as salt: hydrochloride)	218 to 219 °C
O=C(c1ccccc1)c1ccc2c(c1)[nH]c(=O)n2C1CCN(C2(c3ccccc3)CCCCCC2)CC1 (as salt: hydrochloride)	118 to 122 °C
CCCC1(N2CCC(n3c(=O)[nH]c4ccccc43)CC2)CCC2(CCCCC2)CC1 (as salt: hydrochloride)	240 to 247 °C
CNCCn1c(=O)n(C2CCN(C3(c4ccccc4)CCCCCC3)CC2)c2ccccc21 (as salt: hydrochloride)	217 °C
COc1ccc(C2(N3CCC(n4c(=O)[nH]c5ccccc54)CC3)CCCCC2)cc1 (as salt: hydrochloride)	193 to 197 °C
